For data set [1], the system named is human embryonic lung (HEL) fibroblasts. As to the kind of experiment: Cytotoxicity, cell morphology. Conditions: HEL cells; minimum cytotoxic concentration altering cell morphology. Type of data set: cell-based.
Data set [2] relates to Reovirus-1. As to the kind of experiment: Antiviral assay, Reovirus-1 in Vero cells. Conditions: read-out: Antiviral activity: EC50 Reovirus-1 (Vero). Type of data set: cell-based.
Data set [3] relates to African green monkey cells (Vero). The data set is described as follows: Cytotoxicity, cell morphology. Type of data set: cell-based.
The test system of data set [4] is Madin Darby canine kidney cells (MDCK). As to the kind of experiment: Cytotoxicity, cell morphology. Type of data set: cell-based.
The subject of data set [5] is HIV-1 (IIIB). The data set is described as follows: Anti-HIV-1 assay in CEM cells. Type of data set: cell-based, human immunodeficiency virus type 1. Conditions: compared with HDP–PMEA of ref [12].
Data set [6] deals with human cytomegalovirus (HCMV) strain AD-169. The data set is described as follows: Antiviral assay, HCMV AD-169 in HEL cells. Type of data set: cell-based. Conditions: compared with TDP/HDP (S)-HPMPC of ref [11].

With `Nc1ccn(C[C@@H](CO)OCP(=O)(O)O)c(=O)n1.O.O` [(S)-HPMPC, Cidofovir], the “Cytotoxicity Cell morphology (MCC) (HEL)” value in data set [1] is more than 317 μM.

With `Nc1nc2c(ncn2COCCO)c(=O)[nH]1` [Acyclovir], the “Cytotoxicity Cell morphology (MCC) (HEL)” value in data set [1] is recorded as more than 222 μM. Still for that read-out and setting: the value for `O=c1[nH]c(=O)n([C@H]2C[C@H](O)[C@@H](CO)O2)cc1/C=C/Br` [Brivudin] was more than 150 μM.

Usually EC50 stands for the concentration needed to bring the measured effect to its halfway point. Turning to `Nc1ncnc2c1ncn2CCOCP(=O)(OCCCCCCCCCCO)OCCCCCCCCCCO` [Compound 5, Bis(10-Hydroxydecyl) ester of 9-[2-(phosphonomethoxy)ethyl]adenine], the EC50 in data set [2] was more than 34 µM.

Take `Nc1ncnc2c1ncn2CCOCP(=O)(OCCOCCCCCCCCCCO)OCCOCCCCCCCCCCO` [Compound 9, Bis{2-[(10-Hydroxydecyl)oxy]ethyl} ester of 9-[2-(phosphonomethoxy)ethyl]adenine]: the “Cytotoxicity Cell morphology (MCC) Vero” value in data set [3] is given as 148 μM. The “Cytotoxicity Cell morphology (MCC) MDCK” value in data set [4] is recorded as 29.7 μM. In addition, the “Cytotoxicity Cell morphology (MCC) (HEL)” value in data set [1] was found to be 148 μM. The concentration giving a half-maximal response (EC50) in data set [2] was more than 29.7 µM. With `CCOCCOCCOCCOCCOCCOCCOP(=O)(O)COCCn1cnc2c(N)ncnc21` [Compound 12, 3,6,9,12,15,18-Hexaoxaeicosyl ester of 9-[2-(phosphonomethoxy)ethyl]adenine], the “Loss of anti-HIV activity compared to HDP–PMEA” value in data set [5] is > 10^7 fold. With `Nc1ccn(C[C@@H](CO)OCP(=O)(O)OCCOCCOCCOCCOCCOCCO)c(=O)n1` [Compound 16, 14-Hydroxy-3,6,9,12-tetraoxaheptadecyl ester of (S)-1-[3-hydroxy-2-(phophonomethoxy)propyl]cytosine], the “Drop of activity against CMV versus analogous simple alkoxyalkyl ester” value in data set [6] is on record as 400- to 1000 fold. For `Nc1nc(O)c2ncn(COC(CO)CO)c2n1` [Ganciclovir], the “Cytotoxicity Cell morphology (MCC) (HEL)” value in data set [1] is reported as more than 392 μM. In the case of `CCOC(=O)C1=C[C@@H](OC(CC)CC)[C@H](NC(C)=O)[C@@H](N)C1` [Oseltamivir], the “Cytotoxicity Cell morphology (MCC) MDCK” value in data set [4] is listed as more than 100 μM. Regarding `NC(=O)c1ncn([C@@H]2O[C@H](CO)[C@@H](O)[C@H]2O)n1` [Ribavirin, reference compound], in data set [4], the “Cytotoxicity Cell morphology (MCC) MDCK” value was more than 100 μM. In addition, the EC50 in data set [2] was not below 174 µM.

Source of the values: paper PMC7127853 (Bioorganic & Medicinal Chemistry, 2011).
